The melting point is the temperature, or range, at which the solid turns liquid.

Here are results for 4 molecules from US6617326B2 (dated 2003).

Turning to `CC(C)(O)c1cnn2c(-c3ccc(F)c(-c4ccc(F)cc4C#N)c3)cnc2n1`, the melting point came to 215 °C.

`N#Cc1ccc(F)cc1-c1cc(-c2cnc3nc(C(F)(F)F)cnn23)ccc1F` showed a melting point of 200 to 201 °C.

Take `CC(C)(F)c1cnn2c(-c3ccc(F)c(-c4ccc(F)cc4C#N)c3)cnc2n1`: the melting point is 156 to 159 °C.

`CC(C)(O)c1cnn2c(-c3cccc(-c4ccc(F)cc4C#N)c3)cnc2n1` registered a melting point of 175 °C.
